pIC50, pKd: −log10 of the molar value. Active and inactive are the calls of the source. The rule behind the calls is not given here.
Columns and labels:
[1] = system: PBMC; assay: Inhibition of TNF production in human PBMC; format: functional, cell-based
[2] = molecular target: T1, MAP kinase p38 (Homo sapiens, UniProt O15264+Q15759+Q16539+P53778); assay: Inhibition of p38 kinase; format: protein assay
[3] = system: Mus musculus; assay: Inhibition of TNF production in mouse at 10 mg/kg; format: functional
[4] = molecular target: T1, MAP kinase p38; assay: Inhibition of p38 phosphorylation; format: protein assay
[5] = system: Mus musculus; assay: Toxicity in mouse at 200 mg/kg; format: organism-based; set-up: dose 200 mg/kg; conditions: in vivo
[6] = Bioavailability in mouse; format: ADME, organism-based; conditions: in vivo
[7] = Bioavailability in rat; format: ADME, organism-based; conditions: in vivo
[8] = Bioavailability in dog; format: ADME, organism-based, Canis lupus familiaris; conditions: in vivo
[9] = Bioavailability in monkey; format: ADME, organism-based, Macaca mulatta; conditions: rhesus monkey, in vivo
[10] = system: Mus musculus; assay: Inhibition of TNF production in orally dosed mouse model; format: functional; conditions: po
[11] = system: Mus musculus; assay: Inhibition of LPS-induced TNF production in mouse at 10 mg/kg after 2 hrs; format: functional
[12] = molecular target: T1, MAP kinase p38; assay: Inhibition of activated p38 kinase up to 10 uM; format: protein assay
[13] = molecular target: T2, 5-hydroxytryptamine receptor 3A (Homo sapiens, UniProt P46098); assay: Inhibition of 5HT3 receptor
T2 sequence (P46098 whole entry): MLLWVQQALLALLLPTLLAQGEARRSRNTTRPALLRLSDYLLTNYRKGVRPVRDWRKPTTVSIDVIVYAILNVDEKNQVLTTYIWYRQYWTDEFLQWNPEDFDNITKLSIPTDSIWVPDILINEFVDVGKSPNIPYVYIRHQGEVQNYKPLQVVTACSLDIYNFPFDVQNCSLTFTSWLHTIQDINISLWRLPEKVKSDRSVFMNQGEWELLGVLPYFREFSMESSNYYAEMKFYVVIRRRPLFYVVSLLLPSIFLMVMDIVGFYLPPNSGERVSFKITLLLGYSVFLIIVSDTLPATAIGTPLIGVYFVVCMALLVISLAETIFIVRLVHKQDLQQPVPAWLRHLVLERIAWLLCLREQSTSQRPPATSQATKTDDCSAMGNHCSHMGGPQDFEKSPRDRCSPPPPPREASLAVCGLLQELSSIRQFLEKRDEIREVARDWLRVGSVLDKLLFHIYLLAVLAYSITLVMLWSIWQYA

[14] = molecular target: Mitogen-activated protein kinase 14 (Homo sapiens, UniProt Q16539); assay: Binding affinity to p38alpha
Sequence of Mitogen-activated protein kinase 14 (Q16539 whole entry): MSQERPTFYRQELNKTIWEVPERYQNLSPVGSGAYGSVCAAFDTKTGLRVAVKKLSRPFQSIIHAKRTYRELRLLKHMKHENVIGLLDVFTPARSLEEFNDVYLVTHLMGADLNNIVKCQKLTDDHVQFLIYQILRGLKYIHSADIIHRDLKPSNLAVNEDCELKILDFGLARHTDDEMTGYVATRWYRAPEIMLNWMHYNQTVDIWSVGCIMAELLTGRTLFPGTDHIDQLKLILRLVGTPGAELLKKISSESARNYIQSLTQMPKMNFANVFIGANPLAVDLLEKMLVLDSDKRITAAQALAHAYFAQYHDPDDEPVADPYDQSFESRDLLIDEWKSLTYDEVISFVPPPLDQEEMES

[15] = molecular target: T3, Cytochrome P450 1A2 (Homo sapiens, UniProt P05177); assay: Inhibition of CYP1A2 below 15 uM; format: ADME
T3 sequence (P05177 whole entry): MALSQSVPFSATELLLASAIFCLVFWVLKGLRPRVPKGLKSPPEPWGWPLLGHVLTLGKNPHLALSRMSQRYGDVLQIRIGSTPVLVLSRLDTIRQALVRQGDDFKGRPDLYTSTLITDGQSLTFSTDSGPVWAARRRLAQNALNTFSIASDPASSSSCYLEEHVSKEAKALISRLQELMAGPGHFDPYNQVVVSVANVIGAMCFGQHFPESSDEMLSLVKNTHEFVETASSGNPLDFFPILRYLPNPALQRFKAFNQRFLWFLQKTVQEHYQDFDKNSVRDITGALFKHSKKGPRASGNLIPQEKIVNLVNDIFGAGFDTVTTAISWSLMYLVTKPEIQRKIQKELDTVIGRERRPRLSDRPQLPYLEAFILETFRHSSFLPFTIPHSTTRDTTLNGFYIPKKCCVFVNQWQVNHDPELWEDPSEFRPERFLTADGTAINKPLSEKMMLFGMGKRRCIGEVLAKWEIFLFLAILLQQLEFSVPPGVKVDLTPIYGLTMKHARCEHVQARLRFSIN

[16] = molecular target: Cytochrome P450 2D6 (Homo sapiens, UniProt P10635); assay: Inhibition of CYP2D6 below 15 uM; format: ADME
Sequence of Cytochrome P450 2D6 (P10635 whole entry): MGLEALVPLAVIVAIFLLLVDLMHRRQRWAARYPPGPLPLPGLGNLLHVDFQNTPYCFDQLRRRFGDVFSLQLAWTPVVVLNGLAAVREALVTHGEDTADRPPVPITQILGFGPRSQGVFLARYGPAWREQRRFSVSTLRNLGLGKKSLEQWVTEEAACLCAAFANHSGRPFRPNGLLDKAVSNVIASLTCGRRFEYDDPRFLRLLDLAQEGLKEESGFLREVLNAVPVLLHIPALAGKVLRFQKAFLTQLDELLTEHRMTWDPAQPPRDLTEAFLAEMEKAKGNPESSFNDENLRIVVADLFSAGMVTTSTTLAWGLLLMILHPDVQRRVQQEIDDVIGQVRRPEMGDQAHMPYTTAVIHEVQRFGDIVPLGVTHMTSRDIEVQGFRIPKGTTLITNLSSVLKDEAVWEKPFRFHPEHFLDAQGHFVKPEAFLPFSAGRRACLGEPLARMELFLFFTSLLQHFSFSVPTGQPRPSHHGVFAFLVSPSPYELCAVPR

[17] = molecular target: Cytochrome P450 2C9 (Homo sapiens, UniProt P11712); assay: Inhibition of CYP2C9; format: ADME
Sequence of Cytochrome P450 2C9 (P11712 whole entry): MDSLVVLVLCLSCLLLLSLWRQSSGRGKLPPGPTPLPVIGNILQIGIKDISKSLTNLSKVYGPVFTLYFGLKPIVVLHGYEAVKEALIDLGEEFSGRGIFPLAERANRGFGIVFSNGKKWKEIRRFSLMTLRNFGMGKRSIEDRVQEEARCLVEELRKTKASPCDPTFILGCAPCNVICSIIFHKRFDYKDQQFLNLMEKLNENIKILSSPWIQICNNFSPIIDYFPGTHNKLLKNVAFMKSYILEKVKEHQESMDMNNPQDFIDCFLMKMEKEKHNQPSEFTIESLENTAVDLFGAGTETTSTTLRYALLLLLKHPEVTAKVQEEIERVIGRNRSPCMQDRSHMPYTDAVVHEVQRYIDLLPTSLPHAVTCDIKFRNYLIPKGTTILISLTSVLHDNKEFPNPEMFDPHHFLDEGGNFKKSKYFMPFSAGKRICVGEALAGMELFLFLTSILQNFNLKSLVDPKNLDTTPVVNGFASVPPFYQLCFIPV

[18] = molecular target: Cytochrome P450 3A4 (Homo sapiens, UniProt P08684); assay: Inhibition of CYP3A4 below 15 uM; format: ADME
Sequence of Cytochrome P450 3A4 (P08684 whole entry): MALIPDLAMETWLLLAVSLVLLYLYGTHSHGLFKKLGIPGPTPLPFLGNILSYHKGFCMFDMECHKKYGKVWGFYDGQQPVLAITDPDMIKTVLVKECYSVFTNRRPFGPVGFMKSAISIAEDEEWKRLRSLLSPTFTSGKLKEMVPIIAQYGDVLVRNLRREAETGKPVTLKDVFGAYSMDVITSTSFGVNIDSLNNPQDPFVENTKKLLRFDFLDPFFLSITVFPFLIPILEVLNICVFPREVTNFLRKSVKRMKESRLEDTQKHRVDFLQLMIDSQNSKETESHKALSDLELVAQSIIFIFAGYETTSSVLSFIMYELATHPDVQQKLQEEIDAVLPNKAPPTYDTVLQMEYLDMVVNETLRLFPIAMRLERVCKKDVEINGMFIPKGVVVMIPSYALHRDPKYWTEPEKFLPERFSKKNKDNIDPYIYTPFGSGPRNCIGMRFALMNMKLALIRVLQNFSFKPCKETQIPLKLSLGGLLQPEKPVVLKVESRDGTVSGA

[19] = molecular target: Cytochrome P450 2C19 (Homo sapiens, UniProt P33261); assay: Inhibition of CYP2C19; format: ADME
Sequence of Cytochrome P450 2C19 (P33261 whole entry): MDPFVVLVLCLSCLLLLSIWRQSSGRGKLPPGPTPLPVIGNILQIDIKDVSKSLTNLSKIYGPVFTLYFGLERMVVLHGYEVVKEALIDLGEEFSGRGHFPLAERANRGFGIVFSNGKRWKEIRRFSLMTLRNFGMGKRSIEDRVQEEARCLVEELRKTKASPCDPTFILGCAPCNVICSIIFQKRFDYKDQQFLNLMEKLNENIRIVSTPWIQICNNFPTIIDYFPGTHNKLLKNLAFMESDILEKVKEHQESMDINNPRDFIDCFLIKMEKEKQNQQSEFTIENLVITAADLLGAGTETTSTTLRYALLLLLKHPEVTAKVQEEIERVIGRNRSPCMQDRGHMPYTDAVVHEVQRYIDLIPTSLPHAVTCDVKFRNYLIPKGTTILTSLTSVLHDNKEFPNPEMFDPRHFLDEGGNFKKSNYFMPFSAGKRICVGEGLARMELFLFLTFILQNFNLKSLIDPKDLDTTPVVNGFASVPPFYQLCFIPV

[20] = system: Mus musculus; assay: Inhibition of collagen-induced arthritis in mouse at 30 mg/kg, po; format: functional
[21] = system: Rattus norvegicus; assay: Reduction of swelling in adjuvant-induced arthritis rat at 30 mg/kg, po; format: functional; set-up: scale not given: the % may be the effect or the level left

COC(=O)c1c(-c2ccc(F)cc2)c(-c2ccncc2)c(NCCN(C)C)n1C
pIC50 [1]: 7.01

CCOC(=O)c1c(-c2cccc(C(F)(F)F)c2)c(-c2ccncc2)c(N2CCNCC2)n1C
pIC50 [1]: 7.68 | IC50 [2]: > 10 µM

COC(=O)c1c(-c2ccc(F)cc2)c(-c2ccncc2)c(N2CCN(C(C)C)CC2)n1C
pIC50 [1]: 5.70

COC(=O)c1c(-c2ccc(F)cc2)c(-c2ccncc2)c(N2CCCC2)n1C
pIC50 [1]: 7.77

CC(C)NC(=O)c1c(-c2ccc(F)cc2)c(-c2ccncc2)c(N2CCNCC2)n1C
pIC50 [1]: 5.00

CNC(=O)c1c(-c2ccc(F)cc2)c(-c2ccncc2)c(N2CCNCC2)n1C
pIC50 [1]: 6.11

CCOC(=O)c1c(-c2ccc(C)cc2)c(-c2ccncc2)c(N2CCNCC2)n1C
pIC50 [1]: 7.22 | inhibition in vivo at 10 mg/kg [3]: 79% | IC50 [2]: 3.939 µM

CC(=O)N1CCN(c2c(-c3ccncc3)c(-c3ccc(F)cc3)c(C#N)n2C)CC1 [listing 1 of 2 here]
Activity [4]: Active

Cn1c(C(=O)c2ccccc2)c(-c2ccc(F)cc2)c(-c2ccncc2)c1N1CCNCC1
pIC50 [1]: 6.18

CCN1CCN(c2c(-c3ccncc3)c(-c3ccc(F)cc3)c(C(=O)OC)n2C)CC1
pIC50 [1]: 6.87 | Activity [5]: Non-toxic

CC(=O)N1CCN(c2c(-c3ccncc3)c(-c3ccc(F)cc3)c(C#N)n2C)CC1.Cl
bioavailability [6]: 70% | bioavailability [7]: 70% | bioavailability [8]: 70% | bioavailability [9]: 70%

COC(=O)c1c(-c2ccc(F)cc2)c(-c2ccncc2)c(C2=CCNCC2)n1C
pIC50 [1]: 7.14 | Activity [5]: Non-toxic

CC(=O)c1c(-c2ccc(F)cc2)c(-c2ccncc2)c(N2CCN(C(C)=O)CC2)n1C
pIC50 [1]: 7.37 | Activity [5]: Non-toxic

CCC(=O)c1c(-c2ccc(F)cc2)c(-c2ccncc2)c(N2CCNCC2)n1C
pIC50 [1]: 7.17

Cn1c(C#N)c(-c2ccc(F)cc2)c(-c2ccncc2)c1N1CCNCC1
pIC50 [1]: 7.74 | ED50 [10]: 5 mg/kg

CC(=O)c1c(-c2ccc(F)cc2)c(-c2ccncc2)c(N2CCN(C)CC2)n1C
pIC50 [1]: 6.28 | inhibition in vivo at 10 mg/kg [11]: 40%

CC(=O)c1c(-c2ccc(F)cc2)c(-c2ccncc2)c(N2CCNCC2)n1C
pIC50 [1]: 7.40 | Activity [5]: Non-toxic

COC(=O)c1c(-c2ccc(F)cc2)c(-c2ccncc2)c(NC2CCNCC2)n1C
pIC50 [1]: 6.50

COC(=O)c1c(-c2ccc(F)cc2)c(-c2ccncc2)c(N2CCOCC2)n1C
pIC50 [1]: 7.33

COC(=O)c1c(-c2ccc(F)cc2)c(-c2ccncc2)c(NCCN2CCCCC2)n1C
pIC50 [1]: 7.04

COC(=O)c1c(-c2ccc(F)cc2)c(-c2ccncc2)c(N2CCNCC2)n1C
pIC50 [1]: 7.48 | ED50 [10]: 7.5 mg/kg | Activity [12]: inactive | pIC50 [13]: 6.56 | Activity [5]: Toxic

CN1CCN(c2c(-c3ccncc3)c(-c3ccc(F)cc3)c(C#N)n2C)CC1
pIC50 [1]: 7.10

COC(=O)c1c(-c2ccc(F)cc2)c(-c2ccncc2)c(N2CCN(C)CC2)n1C
pIC50 [1]: 7.02 | Activity [5]: Non-toxic

CCOC(=O)c1c(-c2cc(F)cc(F)c2)c(-c2ccncc2)c(N2CCNCC2)n1C
pIC50 [1]: 7.03 | inhibition in vivo at 10 mg/kg [3]: 79% | IC50 [2]: > 10 µM

CC(=O)C(=O)c1c(-c2ccc(F)cc2)c(-c2ccncc2)c(N2CCNCC2)n1C
pIC50 [1]: 7.55 | inhibition in vivo at 10 mg/kg [3]: 52%

COC(=O)c1c(-c2ccc(F)cc2)c(-c2ccncc2)c(NCCN2CCOCC2)n1C
pIC50 [1]: 7.30

Cn1cc(-c2ccc(F)cc2)c(-c2ccncc2)c1N1CCNCC1
pIC50 [1]: 7.82

CCCN1CCN(c2c(-c3ccncc3)c(-c3ccc(F)cc3)c(C(=O)OC)n2C)CC1
pIC50 [1]: 6.05

COC(=O)c1c(-c2ccc(F)cc2)c(-c2ccncc2)c(N(C)CCN2CCOCC2)n1C
pIC50 [1]: 7.42 | ED50 [10]: 3 mg/kg | inhibition in vivo at 10 mg/kg [3]: 78%

CC(=O)N1CCN(c2c(-c3ccncc3)c(-c3ccc(F)cc3)c(C#N)n2C)CC1 [listing 2 of 2 here]
pIC50 [1]: 6.91 | ED50 [10]: 0.5 mg/kg | Activity [5]: Non-toxic | IC50 [2]: 2 µM | pKd [14]: 7.00 | Activity [15]: Not Active | Activity [16]: Not Active | pIC50 [17]: 5.40 | Activity [18]: Not Active | pIC50 [19]: 5.10 | inhibition in vivo at 30 mg/kg [20]: 50% | Activity [21]: 91%
